Source: patent US12723063B2, “GIPR-agonist compounds” (Eli Lilly and Company, priority 2019, dated 2026)
*1 amine or outer side, *2 acyl side, *3 side chain or, on linkers, in order; H or OH if unused. Where a SMILES comes first, the peptide text is derived from it. Side-chain parts run from the residue outwards. [ ]: non-standard residue; d: D form. The star is where a group is joined. C20 diacid = O=C(O)CCCCCCCCCCCCCCCCCCC(=O)*; αMePhe(2-F) = C[C@](N)(Cc1ccccc1F)C(=O)O; γGlu = O=C(O)[C@H](CCC(=O)[*:2])N[*:1]; 4Pal = N[C@@H](Cc1ccncc1)C(=O)O; αMeL = CC(C)C[C@](C)(N)C(=O)O; Iva = CC[C@](C)(N)C(=O)O; AEEA = NCCOCCOCC(=O)O; Aib = CC(C)(N)C(=O)O

Experiments:
Test in all cases: cAMP functional assay (HTRF) in HEK293 cells in presence of 0.1% casein
Type in all cases: cell-based
[1] = biological target: T1, human GLP-1 receptor (GLP-1R) (Homo sapiens, UniProt P43220); conditions: HEK293 cells expressing human GLP-1R, geometric mean, read-out: hGLP1R cAMP Rel EC50 nM (SEM, n)
T1 construct: expressed in transfected cells; host or cells: HEK293

[2] = biological target: T2, human glucagon receptor (GcgR) (Homo sapiens, UniProt P47871); conditions: HEK293 cells expressing human GcgR, geometric mean, read-out: hGcgR cAMP Rel EC50 nM (SEM, n)
T2 construct: expressed in transfected cells; host or cells: HEK293

[3] = biological target: T3, human glucose-dependent insulinotropic peptide receptor (GIPR) (Homo sapiens, UniProt P48546); conditions: HEK293 cells expressing human GIPR, geometric mean, read-out: hGIPR cAMP Rel EC50 nM (SEM, n)
T3 construct: expressed in transfected cells; host or cells: HEK293
T3 sequence (P48546 22-466): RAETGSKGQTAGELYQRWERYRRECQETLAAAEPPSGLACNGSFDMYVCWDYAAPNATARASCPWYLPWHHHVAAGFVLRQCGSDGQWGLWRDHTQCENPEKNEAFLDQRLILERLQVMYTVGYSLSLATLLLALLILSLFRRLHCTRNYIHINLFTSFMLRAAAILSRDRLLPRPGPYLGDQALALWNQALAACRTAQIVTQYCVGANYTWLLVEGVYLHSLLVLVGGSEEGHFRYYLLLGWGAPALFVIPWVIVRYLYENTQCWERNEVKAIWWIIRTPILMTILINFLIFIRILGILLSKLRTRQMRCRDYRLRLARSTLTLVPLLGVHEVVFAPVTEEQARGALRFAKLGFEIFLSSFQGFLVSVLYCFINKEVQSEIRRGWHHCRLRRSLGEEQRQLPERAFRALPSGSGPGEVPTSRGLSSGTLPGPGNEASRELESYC

T2 sequence (P47871 26-477): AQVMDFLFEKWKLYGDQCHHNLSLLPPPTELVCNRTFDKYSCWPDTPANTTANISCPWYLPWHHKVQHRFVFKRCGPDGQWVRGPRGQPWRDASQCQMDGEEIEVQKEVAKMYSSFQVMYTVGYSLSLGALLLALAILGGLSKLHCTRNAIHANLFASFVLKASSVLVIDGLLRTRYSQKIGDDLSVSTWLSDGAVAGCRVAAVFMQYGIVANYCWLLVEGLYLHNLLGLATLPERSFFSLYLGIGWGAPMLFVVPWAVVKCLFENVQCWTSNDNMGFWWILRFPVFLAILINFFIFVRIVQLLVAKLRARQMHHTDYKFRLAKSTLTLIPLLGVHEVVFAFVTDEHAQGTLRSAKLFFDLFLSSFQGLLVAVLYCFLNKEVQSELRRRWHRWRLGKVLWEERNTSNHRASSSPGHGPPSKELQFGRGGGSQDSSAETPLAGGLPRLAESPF
T1 sequence (P43220 24-463): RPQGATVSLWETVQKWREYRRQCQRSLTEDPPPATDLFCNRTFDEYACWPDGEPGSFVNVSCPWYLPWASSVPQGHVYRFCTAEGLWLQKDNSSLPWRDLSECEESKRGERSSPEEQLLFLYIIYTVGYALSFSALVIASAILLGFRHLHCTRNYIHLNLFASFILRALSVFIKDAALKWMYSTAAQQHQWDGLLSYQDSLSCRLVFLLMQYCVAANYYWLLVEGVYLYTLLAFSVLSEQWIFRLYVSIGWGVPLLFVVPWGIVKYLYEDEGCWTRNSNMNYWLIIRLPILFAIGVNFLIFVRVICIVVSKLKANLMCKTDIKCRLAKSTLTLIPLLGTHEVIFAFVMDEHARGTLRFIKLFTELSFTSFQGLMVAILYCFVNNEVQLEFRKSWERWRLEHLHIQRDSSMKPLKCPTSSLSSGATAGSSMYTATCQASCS

For `CC[C@H](C)[C@H](NC(=O)[C@H](CC(C)C)NC(=O)[C@@H](NC(=O)CNC(=O)[C@H](CCC(=O)O)NC(=O)C(C)(C)NC(=O)[C@@H](N)Cc1ccc(O)cc1)[C@@H](C)O)C(=O)N[C@@H](CO)C(=O)N[C@@H](CC(=O)O)C(=O)N[C@@H](Cc1ccc(O)cc1)C(=O)N[C@@H](CO)C(=O)N[C@H](C(=O)N[C@@](C)(CC(C)C)C(=O)N[C@@H](CC(C)C)C(=O)N[C@@H](CC(=O)O)C(=O)N[C@@H](CCCCN)C(=O)N[C@@H](CCCCNC(=O)COCCOCCNC(=O)COCCOCCNC(=O)CC[C@H](NC(=O)CCCCCCCCCCCCCCCCCCC(=O)O)C(=O)O)C(=O)N[C@@H](Cc1c[nH]cn1)C(=O)N[C@@H](CCC(N)=O)C(=O)NC(C)(C)C(=O)N[C@@H](CCC(=O)O)C(=O)N[C@@H](Cc1ccccc1)C(=O)N[C@H](C(=O)N[C@@H](CCC(=O)O)C(=O)N[C@@H](Cc1ccc(O)cc1)C(=O)N[C@@H](CC(C)C)C(=O)N[C@@H](CC(C)C)C(=O)N[C@@H](CCC(=O)O)C(=O)N[C@H](C(=O)NCC(=O)N1CCC[C@H]1C(=O)N[C@@H](CO)C(=O)N[C@@H](CO)C(=O)NCC(=O)N[C@@H](C)C(=O)N1CCC[C@H]1C(=O)N1CCC[C@H]1C(=O)N1CCC[C@H]1C(=O)N[C@@H](CO)C(N)=O)[C@@H](C)O)C(C)C)[C@@H](C)CC` [Example 72] (H-Y[Aib]EGTLISDYSI[αMeL]LDKK([AEEA-AEEA-γGlu-C20 diacid])HQ[Aib]EFVEYLLETGPSSGAPPPS-NH2), the EC50 [1] was greater than 5000 nM, the EC50 [2] was greater than 5000 nM and the EC50 [3] was 0.0182 nM.

In the case of `CC[C@H](C)[C@H](NC(=O)[C@H](CO)NC(=O)[C@H](Cc1ccc(O)cc1)NC(=O)[C@H](CC(=O)O)NC(=O)[C@H](CO)NC(=O)[C@@H](NC(=O)[C@](C)(CC)NC(=O)[C@@H](NC(=O)CNC(=O)[C@H](CCC(=O)O)NC(=O)C(C)(C)NC(=O)[C@@H](N)Cc1ccc(O)cc1)[C@@H](C)O)[C@@H](C)CC)C(=O)N[C@@](C)(CC(C)C)C(=O)N[C@@H](CC(C)C)C(=O)N[C@@H](CC(=O)O)C(=O)N[C@@H](CCCCN)C(=O)N[C@@H](CCCCNC(=O)COCCOCCNC(=O)COCCOCCNC(=O)CC[C@H](NC(=O)CCCCCCCCCCCCCCCCCCC(=O)O)C(=O)O)C(=O)N[C@@H](Cc1c[nH]cn1)C(=O)N[C@@H](CCC(N)=O)C(=O)NC(C)(C)C(=O)N[C@@H](CC(=O)O)C(=O)N[C@@H](Cc1ccccc1)C(=O)N[C@H](C(=O)N[C@@H](CCC(=O)O)C(=O)N[C@@H](Cc1ccncc1)C(=O)N[C@@H](CC(C)C)C(=O)N[C@@H](CC(C)C)C(=O)N[C@@H](C)C(=O)NCC(=O)NCC(=O)N1CCC[C@H]1C(=O)N[C@@H](CO)C(=O)N[C@@H](CO)C(=O)NCC(=O)N[C@@H](C)C(=O)N1CCC[C@H]1C(=O)N1CCC[C@H]1C(=O)N1CCC[C@H]1C(=O)N[C@@H](CO)C(N)=O)C(C)C` [Example 55] (H-Y[Aib]EGT[Iva]ISDYSI[αMeL]LDKK([AEEA-AEEA-γGlu-C20 diacid])HQ[Aib]DFVE[4Pal]LLAGGPSSGAPPPS-NH2), the EC50 [1] is reported as greater than 5000 nM, the EC50 [2] is reported as greater than 5000 nM and the EC50 [3] is reported as 0.017 nM.

`CC[C@H](C)[C@H](NC(=O)[C@H](Cc1ccccc1)NC(=O)[C@@H](NC(=O)CNC(=O)[C@H](CCC(=O)O)NC(=O)C(C)(C)NC(=O)[C@@H](N)Cc1ccc(O)cc1)[C@@H](C)O)C(=O)N[C@@H](CO)C(=O)N[C@@H](CC(=O)O)C(=O)N[C@@H](Cc1ccc(O)cc1)C(=O)N[C@@H](CO)C(=O)N[C@H](C(=O)N[C@@](C)(CC(C)C)C(=O)N[C@@H](CC(C)C)C(=O)N[C@@H](CC(=O)O)C(=O)N[C@@H](CCCCN)C(=O)N[C@@H](CCCCNC(=O)COCCOCCNC(=O)COCCOCCNC(=O)CC[C@H](NC(=O)CCCCCCCCCCCCCCCCCCC(=O)O)C(=O)O)C(=O)N[C@@H](Cc1c[nH]cn1)C(=O)N[C@@H](CCC(N)=O)C(=O)NC(C)(C)C(=O)N[C@@H](CCC(=O)O)C(=O)N[C@@H](Cc1ccccc1)C(=O)N[C@H](C(=O)N[C@@H](CCC(=O)O)C(=O)N[C@@H](Cc1ccc(O)cc1)C(=O)N[C@@H](CC(C)C)C(=O)N[C@@H](CC(C)C)C(=O)N[C@@H](CCC(=O)O)C(=O)N[C@H](C(=O)NCC(=O)N1CCC[C@H]1C(=O)N[C@@H](CO)C(=O)N[C@@H](CO)C(=O)NCC(=O)N[C@@H](C)C(=O)N1CCC[C@H]1C(=O)N1CCC[C@H]1C(=O)N1CCC[C@H]1C(=O)N[C@@H](CO)C(N)=O)[C@@H](C)O)C(C)C)[C@@H](C)CC` [Example 64] (H-Y[Aib]EGTFISDYSI[αMeL]LDKK([AEEA-AEEA-γGlu-C20 diacid])HQ[Aib]EFVEYLLETGPSSGAPPPS-NH2) was tested, and the EC50 [1] was greater than 5000 nM, the EC50 [2] was 3070 nM and the EC50 [3] was 0.0448 nM.

Compound `CC[C@H](C)[C@H](NC(=O)[C@H](Cc1ccccc1)NC(=O)[C@@H](NC(=O)CNC(=O)[C@H](CCC(=O)O)NC(=O)C(C)(C)NC(=O)[C@@H](N)Cc1ccc(O)cc1)[C@@H](C)O)C(=O)N[C@@H](CO)C(=O)N[C@@H](CC(=O)O)C(=O)N[C@@H](Cc1ccc(O)cc1)C(=O)N[C@@H](CO)C(=O)N[C@H](C(=O)N[C@@](C)(CC(C)C)C(=O)N[C@@H](CC(C)C)C(=O)N[C@@H](CC(=O)O)C(=O)N[C@@H](CCCCN)C(=O)N[C@@H](CCCCNC(=O)COCCOCCNC(=O)COCCOCCNC(=O)CC[C@H](NC(=O)CCCCCCCCCCCCCCCCCCC(=O)O)C(=O)O)C(=O)N[C@@H](Cc1c[nH]cn1)C(=O)N[C@@H](CCC(N)=O)C(=O)NC(C)(C)C(=O)N[C@@H](CC(=O)O)C(=O)N[C@@H](Cc1ccccc1)C(=O)N[C@H](C(=O)N[C@@H](CCC(=O)O)C(=O)N[C@@H](Cc1ccc(O)cc1)C(=O)N[C@@H](CC(C)C)C(=O)N[C@@H](CC(C)C)C(=O)N[C@@H](CCC(=O)O)C(=O)N[C@H](C(=O)NCC(=O)N1CCC[C@H]1C(=O)N[C@@H](CO)C(=O)N[C@@H](CO)C(=O)NCC(=O)N[C@@H](C)C(=O)N1CCC[C@H]1C(=O)N1CCC[C@H]1C(=O)N1CCC[C@H]1C(=O)N[C@@H](CO)C(N)=O)[C@@H](C)O)C(C)C)[C@@H](C)CC` [Example 66] (H-Y[Aib]EGTFISDYSI[αMeL]LDKK([AEEA-AEEA-γGlu-C20 diacid])HQ[Aib]DFVEYLLETGPSSGAPPPS-NH2) has an EC50 [1] greater than 5000 nM, an EC50 [2] greater than 5000 nM and an EC50 [3] of 0.0786 nM.

Compound `CC[C@H](C)[C@H](NC(=O)[C@H](Cc1ccccc1)NC(=O)[C@@H](NC(=O)CNC(=O)[C@H](CCC(=O)O)NC(=O)C(C)(C)NC(=O)[C@@H](N)Cc1ccc(O)cc1)[C@@H](C)O)C(=O)N[C@@H](CO)C(=O)N[C@@H](CC(=O)O)C(=O)N[C@@H](Cc1ccc(O)cc1)C(=O)N[C@@H](CO)C(=O)N[C@H](C(=O)N[C@@](C)(CC(C)C)C(=O)N[C@@H](CC(C)C)C(=O)N[C@@H](CC(=O)O)C(=O)N[C@@H](CCCCN)C(=O)N[C@@H](CCCCNC(=O)COCCOCCNC(=O)COCCOCCNC(=O)CC[C@H](NC(=O)CCCCCCCCCCCCCCCCCCC(=O)O)C(=O)O)C(=O)N[C@@H](Cc1c[nH]cn1)C(=O)N[C@@H](CCC(N)=O)C(=O)NC(C)(C)C(=O)N[C@@H](CC(=O)O)C(=O)N[C@@](C)(Cc1ccccc1)C(=O)N[C@H](C(=O)N[C@@H](CCC(=O)O)C(=O)N[C@@H](Cc1ccncc1)C(=O)N[C@@H](CC(C)C)C(=O)N[C@@H](CC(C)C)C(=O)N[C@@H](C)C(=O)NCC(=O)NCC(=O)N1CCC[C@H]1C(=O)N[C@@H](CO)C(=O)N[C@@H](CO)C(=O)NCC(=O)N[C@@H](C)C(=O)N1CCC[C@H]1C(=O)N1CCC[C@H]1C(=O)N1CCC[C@H]1C(=O)N[C@@H](CO)C(N)=O)C(C)C)[C@@H](C)CC` [Example 56] has an EC50 [1] greater than 5000 nM, an EC50 [2] greater than 5000 nM and an EC50 [3] of 0.0169 nM.

Work on `CC[C@H](C)[C@H](NC(=O)[C@H](CO)NC(=O)[C@H](Cc1ccc(O)cc1)NC(=O)[C@H](CC(=O)O)NC(=O)[C@H](CO)NC(=O)[C@@H](NC(=O)[C@](C)(Cc1ccccc1F)NC(=O)[C@@H](NC(=O)CNC(=O)[C@H](CCC(=O)O)NC(=O)C(C)(C)NC(=O)[C@@H](N)Cc1ccc(O)cc1)[C@@H](C)O)[C@@H](C)CC)C(=O)N[C@@](C)(CC(C)C)C(=O)N[C@@H](CC(C)C)C(=O)N[C@@H](CC(=O)O)C(=O)N[C@@H](CCCCN)C(=O)N[C@@H](CCCCNC(=O)COCCOCCNC(=O)COCCOCCNC(=O)CC[C@H](NC(=O)CCCCCCCCCCCCCCCCCCC(=O)O)C(=O)O)C(=O)N[C@@H](Cc1c[nH]cn1)C(=O)N[C@@H](CCC(N)=O)C(=O)NC(C)(C)C(=O)N[C@@H](CC(=O)O)C(=O)N[C@@H](Cc1ccccc1)C(=O)N[C@H](C(=O)N[C@@H](CCC(=O)O)C(=O)N[C@@H](Cc1ccncc1)C(=O)N[C@@H](CC(C)C)C(=O)N[C@@H](CC(C)C)C(=O)N[C@@H](C)C(=O)NCC(=O)NCC(=O)N1CCC[C@H]1C(=O)N[C@@H](CO)C(=O)N[C@@H](CO)C(=O)NCC(=O)N[C@@H](C)C(=O)N1CCC[C@H]1C(=O)N1CCC[C@H]1C(=O)N1CCC[C@H]1C(=O)N[C@@H](CO)C(N)=O)C(C)C` [Example 51] (H-Y[Aib]EGT[αMePhe(2-F)]ISDYSI[αMeL]LDKK([AEEA-AEEA-γGlu-C20 diacid])HQ[Aib]DFVE[4Pal]LLAGGPSSGAPPPS-NH2) yielded an EC50 [1] of 24.7 nM, an EC50 [2] of 308 nM and an EC50 [3] of 0.0166 nM.
